Active and inactive are the calls of the source. The rule behind the calls is not given here.
Assays:
[1] = test system: Leishmania infantum; experiment: Antileishmanial activity against Leishmania infantum (MHOM/TN/80/IPTI) promastigotes assessed as reduction in parasite viability measured after 72 hrs by MTT assay; assay type: functional, organism-based; conditions: MHOM/TN/80/IPT
[2] = test system: Plasmodium falciparum; experiment: Antimalarial activity against chloroquine sensitive Plasmodium falciparum D10 infected in human red blood cells assessed as reduction in parasite growth measured after 72 hrs by parasite lactate dehydrogenase assay; assay type: functional, organism-based; conditions: D10, 72 h
[3] = test system: Plasmodium falciparum; experiment: Antimalarial activity against chloroquine resistant Plasmodium falciparum W2 infected in human red blood cells assessed as reduction in parasite growth measured after 72 hrs by parasite lactate dehydrogenase assay; assay type: functional, organism-based; conditions: W2, 72 h
[4] = test system: Leishmania tropica; experiment: Antileishmanial activity against Leishmania tropica (MHOM/SY/2012/ISS3130) promastigotes assessed as reduction in parasite viability measured after 72 hrs by MTT assay; assay type: functional, organism-based; conditions: MHOM/SY/2012/ISS3130, 72 h
[5] = test system: Plasmodium falciparum; experiment: Antimalarial activity against chloroquine resistant Plasmodium falciparum W2 infected in human red blood cells assessed as reduction in parasite growth at 60 uM measured after 72 hrs by parasite lactate dehydrogenase assay; assay type: functional, organism-based
[6] = test system: Plasmodium falciparum; experiment: Antimalarial activity against chloroquine sensitive Plasmodium falciparum D10 infected in human red blood cells assessed as reduction in parasite growth at 60 uM measured after 72 hrs by parasite lactate dehydrogenase assay; assay type: functional, organism-based
[7] = test system: Leishmania tropica; experiment: Antileishmanial activity against Leishmania tropica (MHOM/SY/2012/ISS3130) promastigotes assessed as reduction in parasite viability at 60 uM measured after 72 hrs by MTT assay; assay type: functional, organism-based
[8] = test system: Leishmania infantum; experiment: Antileishmanial activity against Leishmania infantum (MHOM/TN/80/IPTI) promastigotes assessed as reduction in parasite viability at 60 uM measured after 72 hrs by MTT assay; assay type: functional, organism-based; conditions: MHOM/TN/80/IPT
[9] = Selectivity index, ratio of IC50 for antileishmanial activity against Leishmania tropica (MHOM/SY/2012/ISS3130) promastigotes to IC50 for Cytotoxicity against mouse BMDM cells; assay type: toxicity, cell-based; conditions: read-out: Selectivity Index
[10] = test system: Plasmodium falciparum; experiment: Antimalarial activity against […] late stage (IV-V) Plasmodium falciparum 3D7 gametocytes expressing CBG99 luciferase infected in human red blood cells assessed as reduction in gametocyte viability measured after 72 hrs by luminescence based assay; assay type: functional, organism-based; conditions: 3D7, 72 h
[11] = test system: BMDM; experiment: Cytotoxicity against mouse BMDM cells assessed as reduction in cell viability incubated for 72 hrs by MTT assay; assay type: cell-based
[12] = Selectivity index, ratio of IC50 for antimalarial activity against chloroquine resistance Plasmodium falciparum W2 infected in human red blood cells to IC50 for Cytotoxicity against mouse BMDM cells; assay type: toxicity, cell-based; conditions: read-out: Selectivity Index
[13] = Selectivity index, ratio of IC50 for antimalarial activity against chloroquine sensitive Plasmodium falciparum D10 infected in human red blood cells to IC50 for cytotoxicity against mouse BMDM cells; assay type: toxicity, cell-based; conditions: read-out: Selectivity Index
[14] = Selectivity index, ratio of IC50 for antileishmanial activity against Leishmania infantum (MHOM/TN/80/IPTI) promastigotes to IC50 for Cytotoxicity against mouse BMDM cells; assay type: toxicity, cell-based; conditions: read-out: Selectivity Index

Structure (SMILES) | IC50 [1] [µM] | IC50 [2] [µM] | IC50 [3] [µM] | IC50 [4] [µM] | other results
BrC1=NOC(c2nc(-c3ccsc3)no2)C1 (stereo not given) | 27.3 | 58.3 | 48.1 | 32.6 | 
BrC1=NOC(c2nc(-c3ccc4ccccc4c3)no2)C1 (stereo not given) | 10.5 | 27.8 | 27.2 | 5.3 | 
N[C@H](c1nc(-c2ccccc2)no1)[C@@H]1CC(Br)=NO1 |  |  |  |  | inhibition [5]: inactive; inhibition [6]: inactive
FC(F)(F)c1ccc(-c2noc(C3CC(Br)=NO3)n2)cc1 (stereo not given) | 8.7 | 31 | 34 | 6.9 | 
O=C(O)c1ccc(-c2noc(C3CC(Br)=NO3)n2)s1 (stereo not given) |  | 45.9 | 40.4 |  | inhibition [7]: inactive; inhibition [8]: inactive
CC(C)(C)c1ccc(-c2nnc(C3CC(Br)=NO3)o2)cc1 (stereo not given) | 3.5 | 0.035 | 0.058 | 7.5 | selectivity ratio [9]: 5; IC50 [10]: 10.4 µM; IC50 [11]: 40 µM; selectivity ratio [12]: 690; selectivity ratio [13]: 1140; selectivity ratio [14]: 11
BrC1=NOC(c2ncc(-c3ccccc3)o2)C1 (stereo not given) |  | 32.2 | 39.3 | 50.7 | inhibition [8]: inactive
COc1ccc(-c2noc(C3CC(Br)=NO3)n2)cc1 (stereo not given) | 12 | 34.4 | 42.5 | 14.7 | 
O=C(O)c1ccc(-c2noc(C3CC(Br)=NO3)n2)cc1 (stereo not given) |  | 36.9 | 45.3 |  | inhibition [7]: inactive; inhibition [8]: inactive
BrC1=NOC(c2nc(-c3ccccc3)n[nH]2)C1 (stereo not given) |  | 35.3 | 43 |  | inhibition [7]: inactive; inhibition [8]: inactive
BrC1=NOC(c2nc(-c3ccc4c(c3)OCCO4)no2)C1 (stereo not given) | 25.6 | 29.8 | 32.7 | 39.4 | 
Fc1ccc(-c2noc(C3CC(Br)=NO3)n2)cc1 (stereo not given) | 9 |  |  | 10.9 | inhibition [5]: inactive; inhibition [6]: inactive
Oc1ccc(-c2noc(C3CC(Br)=NO3)n2)cc1 (stereo not given) | 14.7 | 39 | 32.5 | 25.6 | 
BrC1=NOC(c2nc(-c3ccccc3)cs2)C1 (stereo not given) | 28.8 | 45.8 | 39.7 | 33.8 | 
CC(C)(C)c1ccc(-c2noc(C3CC(Br)=NO3)n2)cc1 (stereo not given) | 0.29 | 3.1 | 3.5 | 0.31 | selectivity ratio [9]: 120; IC50 [11]: 37.3 µM; selectivity ratio [12]: 11; selectivity ratio [13]: 12; selectivity ratio [14]: 129
C[C@@H]1[C@H](O)[C@@H](C)/C=C/C=C/C=C/C=C/C=C/C=C/C=C/[C@H](O[C@@H]2O[C@H](C)[C@@H](O)[C@H](N)[C@@H]2O)C[C@@H]2O[C@](O)(C[C@@H](O)C[C@@H](O)[C@H](O)CC[C@@H](O)C[C@@H](O)CC(=O)O[C@H]1C)C[C@H](O)[C@H]2C(=O)O [AMPHOTERICIN B] | 0.11 |  |  |  | 
Nc1ccc(-c2noc(C3CC(Br)=NO3)n2)cc1 (stereo not given) | 28.8 | 45.7 | 39.5 | 33.8 | 
BrC1=NOC(c2nc(-c3ccccc3)no2)C1 (stereo not given) | 17.3 | 52.7 | 64.8 | 43 | 
BrC1=NOC(c2nc(-c3cccs3)no2)C1 (stereo not given) | 26.2 | 52.7 | 46 | 24.9 | 
BrC1=NOC(c2nnc(-c3ccccc3)o2)C1 (stereo not given) |  | 16.7 | 15.1 |  | inhibition [7]: inactive; inhibition [8]: inactive
BrC1=NOC(c2nnc(-c3ccccc3)s2)C1 (stereo not given) | 60.3 | 22.9 | 41.3 |  | inhibition [7]: inactive
